# Data as given in article PMC10838953.
# Values joined by “and” are separate entries in the source; they are usually repeats but may differ in a detail not shown here. Equal entries are not always repeated.
# Legend:
# [1] = system: tumor slices of clear cell renal carcinoma (786-O-luc xenograft); settings: 10 μM CX-4945, 5 μM AB668
# caspase-3 in 786-O cells = settings: 72 h, compounds at 20 μM
# [2] = system: AKT (S129) in 786-O cells
# AKT (S129) = settings: 786-O cells; 48 h
# HeLa cells = settings: cited from earlier work
# HEK293 cell line = settings: nontumor HEK293 cell line; cited from earlier work
structure (smiles),measurement,setting,value
"O=C(O)c1ccc2c(c1)nc(Nc1cccc(Cl)c1)c1ccncc12 [CX-4945, silmitasertib]",cell viability of tumor slices,[1],had no effect
same,caspase-3 activation,caspase-3 in 786-O cells,induced caspase-3 activation
same,pAKTS129 / AKT band quantification,[2],0.3 and 0.4
same,phosphorylation of S129AKT,AKT (S129),"decreased, in a dose-dependent manner"
same,CK2 inhibition 8 h after inhibitor removal,CK2 in 786-O cells,CK2 activity was restored to its initial level
same,NES: Cell recruitment (pro-inflammatory response),786-O cells,1.563
same,NES: Constitutive Signaling by NOTCH1 HD+PEST Domain Mutants,786-O cells,-1.497
same,NES: Constitutive Signaling by NOTCH1 PEST Domain Mutants,786-O cells,-1.497
same,NES: Export of Viral Ribonucleoproteins from Nucleus,786-O cells,1.432
same,NES: G alpha (12/13) signalling events,786-O cells,-1.412
same,NES: HCMV Late Events,786-O cells,1.511
same,NES: Infection with Mycobacterium tuberculosis,786-O cells,1.475
same,NES: Interferon alpha/beta signaling,786-O cells,-1.554
same,NES: Purinergic signaling in leishmaniasis infection,786-O cells,1.563
same,NES: Response of Mtb to phagocytosis,786-O cells,1.605
same,NES: Rev-mediated nuclear export of HIV RNA,786-O cells,1.427
same,NES: Signaling by NOTCH1 HD+PEST Domain Mutants in Cancer,786-O cells,-1.497
same,NES: Signaling by NOTCH1 PEST Domain Mutants in Cancer,786-O cells,-1.497
same,NES: Signaling by NOTCH1 in Cancer,786-O cells,-1.497
same,NES: Uptake and actions of bacterial toxins,786-O cells,1.428
same,enrichmentScore: Cell recruitment (pro-inflammatory response),786-O cells,0.6607
same,enrichmentScore: Constitutive Signaling by NOTCH1 HD+PEST Domain Mutants,786-O cells,-0.4974
same,enrichmentScore: Constitutive Signaling by NOTCH1 PEST Domain Mutants,786-O cells,-0.4974
same,enrichmentScore: Export of Viral Ribonucleoproteins from Nucleus,786-O cells,0.45
same,enrichmentScore: G alpha (12/13) signalling events,786-O cells,-0.5156
same,enrichmentScore: HCMV Late Events,786-O cells,0.4357
same,enrichmentScore: Infection with Mycobacterium tuberculosis,786-O cells,0.5692
same,enrichmentScore: Purinergic signaling in leishmaniasis infection,786-O cells,0.6607
same,enrichmentScore: Response of Mtb to phagocytosis,786-O cells,0.6338
same,enrichmentScore: Rev-mediated nuclear export of HIV RNA,786-O cells,0.4457
same,enrichmentScore: Signaling by NOTCH1 HD+PEST Domain Mutants in Cancer,786-O cells,-0.4974
same,enrichmentScore: Signaling by NOTCH1 PEST Domain Mutants in Cancer,786-O cells,-0.4974
same,enrichmentScore: Signaling by NOTCH1 in Cancer,786-O cells,-0.4974
same,enrichmentScore: Uptake and actions of bacterial toxins,786-O cells,0.5866
same,NES: SARS-CoV-1 activates/modulates innate immune responses,"786-O cells; R-HSA-9692916, CX4945 vs DMSO",1.374
same,enrichmentScore: SARS-CoV-1 activates/modulates innate immune responses,"786-O cells; R-HSA-9692916, CX4945 vs DMSO",0.4726
same,NES: SARS-CoV-1 modulates host translation machinery,"786-O cells; R-HSA-9735869, CX4945 vs DMSO",-1.391
same,enrichmentScore: SARS-CoV-1 modulates host translation machinery,"786-O cells; R-HSA-9735869, CX4945 vs DMSO",-0.4335
O=C(CCC(=O)NCCc1ccc(Cl)c(Cl)c1)NCCCCn1cnc2c(Br)c(Br)c(Br)c(Br)c21 [KN2],cytotoxicity,HeLa cells,6 µM
same,cytotoxicity,HEK293 cell line,16 µM
CCC(=O)Nc1cc(Nc2cc(NC3CC3)n3ncc(C#N)c3n2)ccc1C [SGC-CK2-1],caspase-3 activation,caspase-3 in 786-O cells,did not activate caspase-3
same,pAKTS129 / AKT band quantification,[2],0.4
same,phosphorylation of S129AKT,AKT (S129),"decreased, in a dose-dependent manner"
same,CK2 inhibition 8 h after inhibitor removal,CK2 in 786-O cells,persisted
CN[C@@H]1C[C@H]2O[C@@](C)([C@@H]1OC)n1c3ccccc3c3c4c(c5c6ccccc6n2c5c31)C(=O)NC4 [staurosporine],caspase-3 activation,caspase-3 in 786-O cells,induced caspase-3 activation
